Experiment [1] relates to N2a mouse neuroblastoma cells. In words: Aβ1-42 cytotoxicity (MTT) in N2a cells. The experiment is classed as cell-based. Particulars: for block of Aβ1-42 triggered cell death, N2a (MTT): Aβ1-42 20 μM. As for the experimental part:
(§1) b) To investigate the antagonistic activity of peptides against Aβ cytotoxicity in vitro, HFNs and N2a cells were used. Cells were seeded to 5000 cells/well in a 96-well plate in MEM-10% FBS and DMEM/OptiMEM-5% FBS for overnight. […] At the end of treatment, 20 μl of 5 mg/ml methylthiazolyldiphenyl-tetrazolium bromide (MTT) was added to each well, and incubated at 37° C. for 3 hours. Medium was removed, 100 μl of MTT solvent (isopropanol with 4 mM HCl) added to each well, and the plates were incubated for 30 minutes at room temperature on a rotating shaker. Plates were analyzed on a microplate reader at a 562-nm wavelength. The Live/Dead assay kit was purchased from Invitrogen and assay followed the production instruction. The assayed cells were fixed with 4% paraformaldehyde in PBS and photo imaged with Axio Zeiss fluorescent microscopy. The dead cells were further counted using ImageJ software.
(§2) f) To investigate the antagonistic activity of peptide fragments against Aβ cytotoxicity in vitro, (human fetal neurons) HFNs, human neuroblastoma, SK-N-SH cells and N2a mouse neuroblastoma cells were used. Cells were seeded to 5000 cells/well in a 96-well plate in MEM-10% FBS and DMEM/OptiMEM-5% FBS for overnight. Cells in culture media were preincubated for 8 h with or without AC253 or fragments R5, R14, R11, and followed by treatment with Aβ1-42 for 24 h. At the end of treatment, 20 μl of 5 mg/ml methylthiazolyldiphenyl-tetrazolium bromide (MTT) was added to each well, and incubated at 37° C. for 3 h. Medium was removed, 100 μl of MTT solvent (isopropanol with 4 mM HCl) added to each well, and the plates were incubated for 30 min at room temperature on a rotating shaker. Plates were analyzed on a microplate reader at a 562-nm wavelength.

Experiment [2] deals with human fetal neurons (HFNs). In words: Aβ1-42 cytotoxicity (MTT, live/dead) in human fetal neurons. The experiment is classed as cell-based. Particulars: for block of Aβ1-42 triggered cell death, human fetal neuronal cells (MTT): Aβ1-42 20 μM. As for the experimental part: as §1, §2
The target in experiment [3] is T1, AMY3 receptor (HEK293-AMY3 cells) (Homo sapiens, UniProt O60896+P30988).
T1 construct: expressed in transfected cells; AMY3-293 / AMY3-HEK)
T1 sequence (P30988 25-474): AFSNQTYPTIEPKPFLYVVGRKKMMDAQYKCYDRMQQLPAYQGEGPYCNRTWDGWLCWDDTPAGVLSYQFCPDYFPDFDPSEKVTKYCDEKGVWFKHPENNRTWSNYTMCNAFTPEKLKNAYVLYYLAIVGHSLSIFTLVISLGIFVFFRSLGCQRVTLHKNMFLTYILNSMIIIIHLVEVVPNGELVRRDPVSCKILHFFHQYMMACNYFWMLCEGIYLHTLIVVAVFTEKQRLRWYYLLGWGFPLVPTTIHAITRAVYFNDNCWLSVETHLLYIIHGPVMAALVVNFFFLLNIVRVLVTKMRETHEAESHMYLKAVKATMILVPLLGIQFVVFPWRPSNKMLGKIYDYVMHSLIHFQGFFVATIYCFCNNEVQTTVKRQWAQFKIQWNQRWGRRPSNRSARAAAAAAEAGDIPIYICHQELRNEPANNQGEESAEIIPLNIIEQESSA
T1 sequence (O60896 24-148 partner): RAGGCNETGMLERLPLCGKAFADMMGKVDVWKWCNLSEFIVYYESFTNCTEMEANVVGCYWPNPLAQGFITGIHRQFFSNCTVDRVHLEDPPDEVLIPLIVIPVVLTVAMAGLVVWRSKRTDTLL
In words: Flow cytometry binding and uptake of Cy5 labeled peptides in AMY3-HEK cells. The experiment is classed as cell-based. Particulars: for flow cytometry binding to HEK293-AMY3 cells: 10 μM. As for the experimental part: d) For flow cytometry studies, AMY3-293 cells were used to determine cell binding and uptake and binding of Cy5-AC253, and Cy5-cAC253 peptides. Cell were plated at a density of 1.5×10^5 cells/well and cultured overnight in 12-well plates at 37° C. Cy5 labelled peptides (5 μM) were added and incubated for 1 hour at 37° C. in serum free media. The culture media was discarded, and cell monolayers were washed with PBS containing 2 mM EDTA and 0.5% BSA adjusted to pH 7.4 at 37° C. Cells were washed again with cold buffer and incubated with 0.25% trypsin to remove cell surface-associated fluorophores. Cells were dispersed in FACS solution (10% FBS in PBS) and analyzed using a FACSCanto II flow cytometer (BD Biosciences, USA) selecting a detection window between 720 and 840 nm. Fluorescence histograms and dot plots were generated using the data were processed with FLOWJO software (Tree Star, Inc, USA). At least 10,000 gated events per sample were analyzed. The experiment was repeated with different peptide concentration ranging from 0.5-10 μM, and mean fluorescence intensity of peptides was extrapolated. To further study the cell uptake mechanism, cells were preincubated with cytochalasin D (cytoD, […]) for 30 minutes, and the experiment was repeated as above. To determine the energy dependent mechanism, cell uptake experiment was undertaken at 4° C., and for the competition experiment, cells was pre-incubated with amylin (30 μM) for 30 minutes, and the experiment was repeated.

Experiment [4] relates to h-Amylin depression of hippocampal LTP. In words: Hippocampal slice electrophysiology, long-term potentiation (LTP). The arrangement: species or system mouse. The note with it: for reversal of h-Amylin reduction in LTP: 250 nM peptide perfused 5 min prior to 50 nM h-Amylin; for effect of peptide alone on LTP: 250 nM, mouse hippocampal slice. As for the experimental part:
Brains were quickly removed from mice following decapitation, placed in a cold artificial cerebral spinal fluid (aCSF) on a vibratome chamber, and transverse sections cut through the hippocampus. The aCSF contained (in millimolar 124 NaCl, 3 KCl, 2.4 CaCl2, 2 MgCl2, 1.25 NaH2PO4, 26 NaHCO3, and 10 D-glucose and was equilibrated with 95% 02 and 5% CO2. Hippocampal slices (400-μm thick) were maintained in aCSF-filled holding chamber at room temperature for at least 1 h and individually transferred to the submerged glass bottom recording chamber, which was constantly perfused with aCSF (2 ml/min) at 30° C. Field excitatory postsynaptic potential (fEPSP) was recorded with a metallic (Pt/Ir) electrode (FHC, Bowdoin, Me.) from the stratum radiatum layer of Cornu ammonis 1 region of the hippocampus (CA1) area, and the Schaffer collateral afferents were stimulated with 100-μs test pulses via a bipolar cluster electrode (FHC). For long-term potentiation (LTP) experiments, the stimulus strength was set to elicit 40-50% of the maximum fEPSP amplitude and test pulses were delivered to Schaffer collaterals once every 30 s. LTP was induced by 3-theta-burst stimulation (3-TBS) protocol (each burst consisted of four pulses at 100 Hz with a 200-ms interburst interval). Before 3-TBS or drug application, the responses were monitored for at least 10 min to ensure a stable baseline of fEPSP.
Soluble oligomeric Aβ1-42, Fragments R5, R10, R11 and h-Amylin were used. Aβ1-42 was purchased from rPeptide, and h-Amylin were purchased from American Peptide. All drugs and chemicals were applied directly to the slice via bath perfusion, which allowed for a complete exchange of the perfusate in less than a minute and a half.

Residues, ends and D or L forms follow the SMILES beside them. No end group written: not given here.

Three compounds from patent US10766940B2, “Brain penetrant amylin receptor based peptides for Alzheimer's disease” (The Governors of the University of Alberta, priority 2016, dated 2020) can be followed below.

Consider `CC(C)C[C@H](NC(=O)[C@H](CCC(=O)O)NC(=O)[C@H](CCC(N)=O)NC(=O)[C@@H](N)CO)C(=O)N[C@@H](Cc1c[nH]cn1)C(=O)N[C@@H](CCCNC(=N)N)C(=O)N[C@@H](CC(C)C)C(=O)N[C@@H](CCC(N)=O)C(=O)N[C@H](C(=O)N[C@@H](Cc1ccc(O)cc1)C(=O)N1CCC[C@H]1C(=O)N[C@@H](CCCNC(=N)N)C(N)=O)[C@@H](C)O` [R5] (H-SQELHRLQTYPR-NH2; N-terminus assumed), for which, in experiment [1], the “block of Aβ1-42 triggered cell death, N2a (MTT)” value is “block the effect of Aβ1-42”. Besides, in experiment [2], the “block of Aβ1-42 triggered cell death, human fetal neuronal cells (MTT)” value is “block the effect of Aβ1-42”. The “flow cytometry binding to HEK293-AMY3 cells” value in experiment [3] (37° C., 60 min) is “selective and significant specific binding”. Moreover, in experiment [4], the “reversal of h-Amylin reduction in LTP” value is reported as “significantly reversed” and the “effect of peptide alone on LTP” value is “did not impair LTP”.

Regarding “LGRLSQELHRLQTY (LGRLSQELHRLQTY-NH2) [R14]”, in experiment [1], the “block of Aβ1-42 triggered cell death, N2a (MTT)” value is reported as “block the effect of Aβ1-42”. Moreover, the “block of Aβ1-42 triggered cell death, human fetal neuronal cells (MTT)” value in experiment [2] was “block the effect of Aβ1-42”. Moreover, the “flow cytometry binding to HEK293-AMY3 cells” value in experiment [3] (37° C., 60 min) is “selective and significant specific binding”. In experiment [4], the “reversal of h-Amylin reduction in LTP” value was “significantly reversed” and the “effect of peptide alone on LTP” value is given as “did not impair LTP”.

Turning to `CC(C)C[C@H](NC(=O)[C@H](CCCNC(=N)N)NC(=O)CNC(=O)[C@@H](N)CC(C)C)C(=O)N[C@@H](CO)C(=O)N[C@@H](CCC(N)=O)C(=O)N[C@@H](CCC(=O)O)C(=O)N[C@@H](CC(C)C)C(=O)N[C@@H](Cc1c[nH]cn1)C(=O)N[C@@H](CCCNC(=N)N)C(=O)N[C@@H](CC(C)C)C(=O)N[C@@H](CCC(N)=O)C(=O)N[C@H](C(=O)N[C@@H](Cc1ccc(O)cc1)C(=O)N1CCC[C@H]1C(=O)N[C@@H](CCCNC(=N)N)C(=O)N[C@H](C(=O)N[C@@H](CC(N)=O)C(=O)N[C@H](C(=O)NCC(=O)N[C@@H](CO)C(=O)N[C@@H](CC(N)=O)C(=O)N[C@H](C(=O)N[C@@H](Cc1ccc(O)cc1)C(N)=O)[C@@H](C)O)[C@@H](C)O)[C@@H](C)O)[C@@H](C)O` [AC253], the “attenuation of Aβ1-42 induced cell death, N2a” value in experiment [1] (Aβ1-42 10 μM, peptide 10 μM pre-applied, MTT) is recorded as “attenuated”. In experiment [2] (Aβ1-42 10 μM, peptide 10 μM pre-applied, MTT and live-dead assays), the “attenuation of Aβ1-42 induced cell death, HFNs” value is recorded as “attenuated”. The “mean fluorescence intensity at 4° C.” value in experiment [3] (4° C.) turned out to be 400±75. In addition, the “mean fluorescence intensity, binding and uptake” value in experiment [3] (Cy5 labeled peptide 5 μM, 60 min, 37° C.) came to 1200. Moreover, the “mean fluorescence intensity after pre-incubation with hAmylin” value in experiment [3] (hAmylin (30 μM) pre-incubation 30 minutes) was determined as 500±100. Moreover, the “mean fluorescence intensity in the presence of cytoD” value in experiment [3] (preincubation with cytochalasin D) was 450±50.
